Assay results from patent publication US10695434B2, “Preventing central nervous system induced nausea through use of vitamin B12 conjugation” (Syracuse University, priority 2018, dated 2020).
pKd: −log10 of the molar value.

Tests used:
[1] = Conditioned taste avoidance (CTA), two-bottle test (nausea/malaise); type: in vivo, Sprague Dawley rats; conditions: rats, IP, B12-Ex4 5 μg/kg, LiCl 0.15M
Description: Rats (n=8-10 per drug) were evaluated for expression of a CTA to a flavor paired with B12-Ex4 (5 μg/kg, IP). […] See Supplemental Methods for more details.

Human recombinant TCII = target: T1, Human recombinant TCII (Homo sapiens, UniProt P20062); test: TCII binding, radio chase assay using 57Co-labelled B12
T1 sequence (P20062 19-427): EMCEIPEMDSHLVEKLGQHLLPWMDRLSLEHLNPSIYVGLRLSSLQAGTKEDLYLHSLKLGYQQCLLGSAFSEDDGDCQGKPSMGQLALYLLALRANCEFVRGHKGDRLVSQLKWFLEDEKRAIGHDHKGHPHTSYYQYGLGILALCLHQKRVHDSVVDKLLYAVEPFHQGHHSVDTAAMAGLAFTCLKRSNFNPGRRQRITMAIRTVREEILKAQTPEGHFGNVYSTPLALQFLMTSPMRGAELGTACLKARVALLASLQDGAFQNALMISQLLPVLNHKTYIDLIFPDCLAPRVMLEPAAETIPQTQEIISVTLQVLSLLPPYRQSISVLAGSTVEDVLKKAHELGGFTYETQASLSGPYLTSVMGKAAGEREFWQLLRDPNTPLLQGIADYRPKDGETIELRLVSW
Source text: FIG. 1 is a series of graphs of (A) Synthetic scheme for Cy5-B12, Cy5 alkyne was “clicked” onto a B12-azide conjugate. (B) RP-HPLC of Cy5-B12 showing purity ≥98% and LC-MS showing 1031[M+2H]^+2, 1042[M+Na+2H]^+2, and 1050 [M+K+2H]^+2, consistent with the conjugate. (C) Excitation and emission spectra of Cy5-B12 at 645 and 682 nm, respectively. […] Note that B12-Ex4 agonism at the GLP-1 receptor was previously reported (68 pM).
One addition to the characterization was the measure of TCII binding of B12-Ex4 (FIG. 1D), which was conducted at the Department of Clinical Medicine-Clinical Biochemistry, University of Aarhus, Denmark as described. […] Injections were separated by at least 48 h. For most in vivo experiments, injections were administered using a within-subjects, Latin square design. The exception was the conditioned taste avoidance (CTA) study, which used a between-subjects design.
In addition, the food intake- and body weight-suppressive effects of GLP-1R agonists have highlighted the utility of these pharmacotherapies for the treatment of obesity.

[2] = Energy balance: chow intake and body weight after SC injection; type: in vivo, Sprague Dawley rats; conditions: rats
Description: Shortly before the onset of the dark phase, rats (n=12) were given subcutaneous (SC) injection of B12-Ex4 (1, 5, or 20 μg/kg) or vehicle (1 ml/kg sterile saline). Chow intake was measured at 1, 3, 6, and 24 h post-injection. Food spillage was accounted for in all intake measurements. Body weight was also measured at 0 and 24 h.
(§1) Pre-weighed food was returned to the rats after the OGTT, and chow intake was measured for ˜21.5 h (e.g., until 24 h after the SC injections). Spillage was accounted for in food intake measurements. Body weight was recorded at 0 and 24 h. For the OGTT, n=10 rats were tested; food and body weight data were collected from n=9 due to a technical error in food intake measurement.

[3] = Oral glucose tolerance test (OGTT); type: in vivo, Sprague Dawley rats; conditions: rats
Description: Rats (n=12) were deprived of food overnight before testing. On the morning of testing, just after the onset of the […], water was also removed from the cage. A small drop of blood was collected from the tail tip and analyzed for blood glucose (BG) level using a standard glucometer (AccuCheck). Immediately after this baseline BG reading (t=−30 min), each rat received SC injection of B12-Ex4 (5 or 20 μg/kg) or vehicle (1 ml/kg sterile saline); doses of drug were selected based on the results of the feeding study. Thirty minutes later (t=0 min), BG was measured and each rat received an oral gavage of glucose (2 g/kg). Subsequent BG readings were taken at 20, 40, 60, and 120 min after glucose gavage. After the final BG reading, food and water were returned.
as §1

[4] = Intraperitoneal glucose tolerance test (IPGTT); type: in vivo, C57BL/6J mice; conditions: mice
Description: The experimental procedure for IPGTT in mice was similar to that used for OGTT in rats. Briefly, mice (n=13; 8 females, 5 males) were food and water deprived for 4 h before and during the IPGTT. Testing was completed mid-light phase. Blood was collected from the tail tip and analyzed for BG. […] Thirty minutes later (t=0 min), BG was measured and each mouse received an IP injection of glucose (2 g/kg). Subsequent BG readings were taken at 20, 40, 60, and 120 min after glucose injection. After the final BG reading, food and water were returned. Area under the curve (AUC) was calculated from 0-120 min (e.g., beginning at the time of glucose administration) using the trapezoidal method.

[5] = Oral glucose tolerance test, food intake and nausea (kaolin consumption) in diabetic lean rats; type: in vivo; conditions: Goto-Kakazaki rats; Ex-4 20 ug/Kg, B12-Ex4 equimolar, liraglutide 100 ug/Kg, 60 min pre-glucose
Description: FIG. 8 is a series of graphs showing a standard oral glucose tolerance test performed in Goto-Kakazaki rats, a form of naturally diabetic lean rat, along with food intake and nausea measurements.
Referring to FIG. 8, Testing of Ex-4 at 20 ug/Kg, B12-Ex4 at equimolar to Ex-4, and liraglutide at 100 ug/Kg were screened for glucoregulation, food intake reduction and nausea (kaolin consumption). All drugs were administered at 60 minutes pre-glucose bolus, food intake and nausea were tracked over 6 hours.

## [Cl-].[Li+] [LiCl, lithium chloride]
[1]
  acceptance of the drug-paired flavor (CTA): produce avoidance of the drug-paired flavor

## Cyanocobalamin [cyano-B12]
Human recombinant TCII
  pKd: 9.01

## exendin-4 [Ex4]
[2]; SC 5 or 20 μg/kg, vs vehicle
  food intake in the 21.5 h after OGTT: ate significantly less
[2]; SC, vehicle versus 20 μg/kg p<0.05
  body weight gain, 24 h: gained less body weight
[3]; SC 5 or 20 μg/kg, 30 min after injection
  blood glucose by drug on its own (t=0, before glucose): increased BG on its own
[3]; SC 5 or 20 μg/kg, oral glucose 2 g/kg
  blood glucose levels in the OGTT (overall): pronounced hyperglycemic response
[3]; B12-Ex4: both doses at 60 min, higher dose at 120 min, Ex4: 40, 60, 120 min
  BG late after glucose gavage: remained significantly elevated
[4]; 30 min after IP drug
  BG prior to IP glucose injection (t=0): reduced BG levels
[4]; IP Ex4 5 μg/kg or equimolar B12-Ex4, IP glucose 2 g/kg
  blood glucose levels in the IPGTT: strongly attenuated the increase in blood glucose levels
[4]; p<0.05
  BG at 20 min, Ex4 compared to B12-Ex4: more potent effect
[4]; post-glucose load, vs saline
  blood glucose area under the curve 0-120 min: hypoglycemic effects
[5]
  hyperglycemia in OGTT: does do
